# Source: the supplement of paper PMC11451515
# Test system: NOMO1
# Assay: cell viability relative to DMSO control; higher = less cytotoxic
# Conditions: 48 h
# Method in brief: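 Cells were incubated for 48 h at 37°C before CellTiter-Glo One luminescence was read. The cells were NOMO1 or SEM (500 cells/well) or P12-Ichikawa (1000 cells/well) leukemia cells, adapted for at least four passages in each medium and seeded in 1536-well plates (5 μl). Dosing used library compounds in DMSO applied by pin over 11 threefold points, 47 μM to 0.79 nM. Viability is the per-plate percentage of DMSO wells, with cell-free wells as background.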
# [1] = HPLM + 10% dialyzed FBS, 0.000781 µM
# [2] = HPLM + 10% dialyzed FBS, 0.00234 µM
# [3] = HPLM + 10% dialyzed FBS, 0.00702 µM
# [4] = HPLM + 10% dialyzed FBS, 0.0211 µM
# [5] = HPLM + 10% dialyzed FBS, 0.0632 µM
# [6] = HPLM + 10% dialyzed FBS, 0.19 µM
# [7] = HPLM + 10% dialyzed FBS, 0.569 µM
# [8] = HPLM + 10% dialyzed FBS, 1.71 µM
# [9] = HPLM + 10% dialyzed FBS, 5.12 µM
# [10] = HPLM + 10% dialyzed FBS, 15.4 µM
# [11] = HPLM + 10% dialyzed FBS, 46.1 µM
# [12] = RPMI 5 mM glucose + 10% FBS, 0.000781 µM
# [13] = RPMI 5 mM glucose + 10% FBS, 0.00234 µM
# [14] = RPMI 5 mM glucose + 10% FBS, 0.00702 µM
# [15] = RPMI 5 mM glucose + 10% FBS, 0.0211 µM
# [16] = RPMI 5 mM glucose + 10% FBS, 0.0632 µM
# [17] = RPMI 5 mM glucose + 10% FBS, 0.19 µM
# [18] = RPMI 5 mM glucose + 10% FBS, 0.569 µM
# [19] = RPMI 5 mM glucose + 10% FBS, 1.71 µM
# [20] = RPMI 5 mM glucose + 10% FBS, 5.12 µM
# [21] = RPMI 5 mM glucose + 10% FBS, 15.4 µM
# [22] = RPMI 5 mM glucose + 10% FBS, 46.1 µM
# [23] = RPMI 5 mM glucose + 10% dialyzed FBS, 0.000781 µM
# [24] = RPMI 5 mM glucose + 10% dialyzed FBS, 0.00234 µM
# [25] = RPMI 5 mM glucose + 10% dialyzed FBS, 0.00702 µM
# [26] = RPMI 5 mM glucose + 10% dialyzed FBS, 0.0211 µM
# [27] = RPMI 5 mM glucose + 10% dialyzed FBS, 0.0632 µM
# [28] = RPMI 5 mM glucose + 10% dialyzed FBS, 0.19 µM
# [29] = RPMI 5 mM glucose + 10% dialyzed FBS, 0.569 µM
# [30] = RPMI 5 mM glucose + 10% dialyzed FBS, 1.71 µM
# [31] = RPMI 5 mM glucose + 10% dialyzed FBS, 5.12 µM
# [32] = RPMI 5 mM glucose + 10% dialyzed FBS, 15.4 µM
# [33] = RPMI 5 mM glucose + 10% dialyzed FBS, 46.1 µM
Compound,cell viability [1] [%],cell viability [2] [%],cell viability [3] [%],cell viability [4] [%],cell viability [5] [%],cell viability [6] [%],cell viability [7] [%],cell viability [8] [%],cell viability [9] [%],cell viability [10] [%],cell viability [11] [%],cell viability [12] [%],cell viability [13] [%],cell viability [14] [%],cell viability [15] [%],cell viability [16] [%],cell viability [17] [%],cell viability [18] [%],cell viability [19] [%],cell viability [20] [%],cell viability [21] [%],cell viability [22] [%],cell viability [23] [%],cell viability [24] [%],cell viability [25] [%],cell viability [26] [%],cell viability [27] [%],cell viability [28] [%],cell viability [29] [%],cell viability [30] [%],cell viability [31] [%],cell viability [32] [%],cell viability [33] [%]
CN(C)[C@H]\1[C@@H]2C[C@H]3C(=C(O)\[C@]2(O)C(=O)\C(=C1O)C(N)=O)/C(=O)C4=C(O)C=CC=C4[C@@]3(C)O,104,111,104,109,111,106,120,95.1,121,97.1,99.6,117,124,118,125,108,102,119,110,102,104,106,104,116,112,115,112,102,110,95,110,101,93.4
CC(C)C[C@@H](C=O)NC(=O)[C@H](CC(C)C)NC(=O)[C@H](CC(C)C)NC(=O)OCc1ccccc1,,,,,,,,,,,,115,119,130,143,134,128,78.1,42.1,10.2,8.45,7.38,,,,,,,,,,,
C=C[C@H]1CN2CC[C@H]1C[C@H]2[C@H](O)c1ccnc2ccc(OC)cc12,116,89.2,96.3,109,105,98.4,115,96.4,112,101,86.8,86.5,87.5,84.3,87.8,103,97.9,98.7,103,99.5,97.6,76.4,92.3,103,98.9,96.1,104,108,113,105,106,105,68.8
Cn1c(CNc2ccc(C(=N)N)cc2)nc2cc(C(=O)N(CCC(=O)O)c3ccccn3)ccc21,109,106,103,109,103,95.5,116,119,125,124,111,92,92.8,94.6,95.5,99.3,98.7,97.7,109,97.3,103,111,94.5,91.3,95.9,93.8,113,99.6,94,104,96,110,116
Cc1cnc(-c2cc(N3CCN(C(=O)CC[S+](C)(=O)[O-])CC3)ncc2Cl)c(C)c1,96.3,125,132,126,132,134,127,129,137,134,191,,,,,,,,,,,,,,,,,,,,,,
COc1ncc(-c2ccc3nccc(-c4ccnnc4)c3c2)cc1N[S+](=O)([O-])c1ccc(F)cc1F,95.5,81.2,76.8,89.6,75.1,66.3,60.5,45.8,41.7,31.9,29.7,121,96.1,92.3,79.8,76,72.8,69.7,43.1,29.9,27.8,21,104,92.1,86.2,76.6,72.9,62.6,64,44.7,38.1,29.7,19.9
O=C(Nc1cc2cc[nH]c2cn1)c1ccccc1,97.5,116,94.4,122,108,102,123,103,21,4.39,0.639,95.6,101,97.2,110,100,108,99.4,88.4,54.6,18.9,2.79,96.6,104,102,98.5,103,105,105,94,59.1,45.9,7.31
COc1ccc(-c2nc(N3CCOCC3)c3sc(CN(C)c4ncc(C(=O)NO)cn4)cc3n2)cn1,109,132,86.2,62.8,12.6,8.22,7.83,8.13,7.89,7.72,6.31,110,112,100,65.4,14.2,8.1,8.11,8.29,7.05,7.28,6.26,117,132,104,73.7,22.8,7.51,7.58,7.17,6.72,6.98,6.02
CN1CCCN=C1/C=C/c1cccs1.O=C(O)c1cc2ccccc2c(Cc2c(O)c(C(=O)O)cc3ccccc23)c1O,114,111,126,108,122,112,123,120,104,34.1,17.2,115,121,129,112,114,111,117,137,109,92.7,29.3,120,127,114,104,110,110,119,110,110,64.4,28.9
C[N]1C=C(C2=C1C=CC=C2)\C3=C(\C(=O)NC3=O)C4=C5CC(CN)CC[N]5C6=C4C=CC=C6 (centres undefined),94.9,118,115,101,109,120,115,110,113,90,37.4,88.5,104,94.1,97.8,102,100,93.5,95.8,96.8,81.3,44.1,92.8,100,106,114,105,111,105,100,104,88,63.4
S=P(N1CC1)(N1CC1)N1CC1,107,105,99,104,98.5,98.6,110,97.3,92.4,104,62.6,92.8,102,95.7,96.4,103,95.7,92.7,95.5,101,90.2,89.8,101,105,95.4,91.4,104,99.6,116,98.7,95.5,98.3,92.4
CCC[C@H]1C[C@H](C(=O)N[C@@H]([C@@H]2O[C@@H](SC)[C@@H](O)[C@@H](O)[C@H]2O)[C@H](C)Cl)N(C)C1,102,117,106,119,128,121,131,118,124,137,114,119,115,108,118,112,134,123,116,129,126,143,112,117,120,113,114,119,122,109,129,127,130
CN(C)C1=CC=C(C=C1)C(C2=CC=C(C=C2)N(C)C)=C/3\C=C/C(/C=C3)=[N+](C)C,102,114,136,132,103,26.6,9.97,4.17,4.13,1.55,0.245,113,98.4,101,113,107,27.2,6.73,2.46,2.87,0.606,-0.00921,112,101,110,100,96.9,33.1,11.3,5.56,5.09,1.49,0.371
OC1=CC2=C(C(=C1)O)C(=O)\C=C(/O2)C3=CC=CC=C3,106,106,103,116,109,116,108,118,121,93.6,20.2,101,97.8,92.1,97.5,100,108,92.7,96.1,101,105,15.6,91.9,103,106,104,115,102,115,112,98.9,98.3,27.6
CCC(C)(C)c1ccc(CC(C)CN2C[C@@H](C)O[C@@H](C)C2)cc1 (some centres undefined),87.4,91.8,87.9,82,93.3,84.8,97,80.9,93.6,87.1,87.9,71.5,74.7,73.5,77.9,77.5,76.5,75.8,82.3,77.9,80.7,77.5,69.8,87.9,78.8,77,83.4,82,90.2,84,85.2,86.2,88
C\C1=C(\C=C(\C#N)C(=O)N1)C2=CC=NC=C2,98.3,114,117,116,133,118,123,131,114,103,108,94.7,108,110,104,109,111,106,127,103,97.5,71.5,112,108,119,118,115,114,120,115,114,110,81.2
